Experimental data reported in patent publication US7592366B2, “Therapeutic compounds” (Allergan, Inc., priority 2006, dated 2009).

Key:
[1] = target: T1, hEP2/Gqs5 (Homo sapiens, UniProt P43116); experiment: FLIPR calcium signal, EP2; format: cell-based; conditions: HEK-293(EBNA) cells
T1 construct: expressed in transfected cells; host or cells: HEK-293(EBNA)
Procedure: (§1) HEK-293(EBNA) cells, stably expressing one type or subtype of recombinant human prostaglandin receptors (prostaglandin receptors expressed: hDP/Gqs5; hEP1; hEP2/Gqs5; hEP3A/Gqi5; hEP4/Gqs5; hFP; hIP; hTP), were cultured in 100 mm culture dishes in high-glucose DMEM medium containing 10% fetal bovine serum, 2 mM l-glutamine, 250 μg/ml geneticin (G418) and 200 μg/ml hygromycin B as selection markers, and 100 units/ml penicillin G, 100 μg/ml streptomycin and 0.25 μg/ml amphotericin B.
(§2) Cells were seeded at a density of 5×10^4 cells per well in Biocoat® Poly-D-lysine-coated black-wall, clear-bottom 96-well plates (Becton-Dickinson) and allowed to attach overnight in an incubator at 37° C. Cells were then washed two times with HBSS-HEPES buffer (Hanks Balanced Salt Solution without bicarbonate and phenol red, 20 mM HEPES, pH 7.4) using a Denley Cellwash plate washer (Labsystems). After 45 minutes of dye-loading in the dark, using the calcium-sensitive dye Fluo-4 […] at a final concentration of 2 μM, plates were washed four times with HBSS-HEPES buffer to remove excess dye leaving 100 μl in each well. Plates were re-equilibrated to 37° C. for a few minutes.
(§3) Cells were excited with an Argon laser at 488 nm, and emission was measured through a 510-570 nm bandwidth emission filter (FLIPR™, Molecular Devices, Sunnyvale, Calif.). Drug solution was added in a 50 μl volume to each well to give the desired final concentration. The peak increase in fluorescence intensity was recorded for each well. On each plate, four wells each served as negative (HBSS-HEPES buffer) and positive controls (standard agonists: BW245C (hDP); PGE2 (hEP1; hEP2/Gqs5; hEP3A/Gqi5; hEP4/Gqs5); PGF2α (hFP); carbacyclin (hIP); U-46619 (hTP), depending on receptor). The peak fluorescence change in each drug-containing well was then expressed relative to the controls.
(§4) Compounds were tested in a high-throughput (HTS) or concentration-response (CoRe) format. In the HTS format, forty-four compounds per plate were examined in duplicates at a concentration of 10^−5 M. To generate concentration-response curves, four compounds per plate were tested in duplicates in a concentration range between 10^−5 and 10^−11 M. The duplicate values were averaged. In either, HTS or CoRe format each compound was tested on at least 3 separate plates using cells from different passages to give an n≧3.

[2] = target: T2, EP4 receptors (Homo sapiens, UniProt P35408); experiment: Radioligand binding [3H]PGE2, EP4 Ki; conditions: [3H]PGE2 competition, HEK-293 cells expressing EP4
T2 construct: expressed in transfected cells; host or cells: HEK-293
Procedure: (§5) HEK-293 cells stably expressing the human or feline FP receptor, or EP1, EP2, or EP4 receptors were washed with TME buffer, scraped from the bottom of the flasks, and homogenized for 30 sec using a Brinkman PT 10/35 polytron. TME buffer was added to achieve a final 40 ml volume in the centrifuge tubes (the composition of TME is 100 mM TRIS base, 20 mM MgCl2, […]; 10N HCl is added to achieve a pH of 7.4).
(§6) The cell homogenate was centrifuged at 19000 r.p.m. for 20 min at 4° C. using a Beckman Ti-60 rotor. The resultant pellet was resuspended in TME buffer to give a final 1 mg/ml protein concentration, as determined by Biorad assay. Radioligand binding competition assays vs. [^3H-]17-phenyl PGF2α (5 nM) were performed in a 100 μl volume for 60 min. Binding reactions were started by adding plasma membrane fraction. The reaction was terminated by the addition of 4 ml ice-cold TRIS-HCl buffer and rapid filtration through glass fiber GF/B filters using a Brandel cell harvester. The filters were washed 3 times with ice-cold buffer and oven dried for one hour.
(§7) [^3H-] PGE2 (specific activity 180 Ci mmol) was used as the radioligand for EP receptors. [^3H] 17-phenyl PGF2α was employed for FP receptor binding studies. Binding studies employing EP1, EP2, EP4 and FP receptors were performed in duplicate in at least three separate experiments. A 200 μl assay volume was used. Incubations were for 60 min at 25° C. and were terminated by the addition of 4 ml of ice-cold 50 mM TRIS-HCl, followed by rapid filtration through Whatman GF/B filters and three additional 4 ml washes in a cell harvester (Brandel). Competition studies were performed using a final concentration of 5 nM [^3H]-PGE2, or 5 nM [^3H] 17-phenyl PGF2α and non-specific binding determined with 10^−5M of unlabeled PGE2, or 17-phenyl PGF2α, according to receptor subtype studied.

[3] = target: T3, EP2 (Homo sapiens, UniProt P43116); experiment: cAMP assay, EP2; format: cell-based; design: expressed in transfected cells; host or cells: HEK-EBNA; conditions: HEK-EBNA cells expressing EP2
Procedure: A 384-well drug plate was prepared to contain 6 test compounds, PGE2 and cAMP in 16 serial dilutions in triplicate, using a Biomek station. HEK-EBNA cells expressing a target PG receptor subtype (EP2 or EP4) were suspended in a stimulation buffer (HBSS, 0.1% BSA, 0.5 mM IBMX and 5 mM HEPES, pH 7.4) in a density of 10^4 cells/5 μl. The reaction was initiated by mixing 5 μL drug dilutions with 5 μl of HEK-EBNA cells in a well, carried out for 30 min at room temperature, and followed by the addition of 5 μl anti-cAMP acceptor beads in the control buffer with Tween-20 (25 mM NaCl, 0.03% Tween-20, 5 mM HEPES, pH7.4). After 30 min in the dark at room temperature, the mixtures were incubated with 15 μl biotinylated-cAMP/strepavidin donor beads in Lysis/Detection buffer (0.1% BSA, 0.3% Tween-20 and 5 mM HEPES, pH7.4) for 45 min at the room temperature. Fluorescence changes were read using a Fusion-alpha HT microplate reader.

[4] = target: T3, EP2; experiment: Competition binding [3H]PGE2, EP2 Ki; design: expressed in transfected cells; host or cells: HEK 293; conditions: [3H]PGE2 competition, HEK 293 cells expressing human EP2
Procedure: Competition binding experiments were performed in a medium containing Hank's balanced salt solution, Hepes 20 mM, pH 7.3, membranes (˜60 μg protein) or 2×10^5 cells from HEK 293 cells stably expressing human EP2 receptors, [^3H]PGE2 (10 nM) and various concentrations of test compounds in a total volume of 300 μl. Reaction mixtures were incubated at 23° C. for 60 min, and were filtered over Whatman GF/B filters under vacuum. Filters were washed three times with 5 ml ice-cold buffer containing 50 mM Tris/HCl (pH 7.3). Non-specific binding was estimated in the presence of excess unlabeled PGE2 (10 μM). Binding data fitted to the binding model for a single class of binding sites, using nonlinear regression analysis. IC50 values thus obtained were converted to Ki using the equation of Ki=(IC50/(1+[L]/KD) where [L] represents PGE2 concentration (10 nM) and KD the dissociation constant for [^3H]PGE2 at human EP2 receptors (40 nM).
as §5, §6, §7

[5] = target: T4, hTP (Homo sapiens, UniProt P21731); experiment: FLIPR calcium signal, hTP; format: cell-based; conditions: read-out: Other Receptors (EC50 in nM) hTP
T4 construct: expressed in transfected cells; host or cells: HEK-293(EBNA)
T4 sequence (P21731 1-343): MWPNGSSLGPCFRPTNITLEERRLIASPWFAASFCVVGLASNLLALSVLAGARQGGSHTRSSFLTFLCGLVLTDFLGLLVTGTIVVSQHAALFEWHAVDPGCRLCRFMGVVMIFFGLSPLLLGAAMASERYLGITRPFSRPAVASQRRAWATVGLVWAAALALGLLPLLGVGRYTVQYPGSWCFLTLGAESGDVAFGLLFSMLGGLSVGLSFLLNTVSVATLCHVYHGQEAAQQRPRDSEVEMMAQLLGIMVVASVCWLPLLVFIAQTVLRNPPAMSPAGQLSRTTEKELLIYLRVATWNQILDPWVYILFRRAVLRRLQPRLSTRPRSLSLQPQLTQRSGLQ
Procedure: as §1, §2, §3
Compounds were tested in a high-throughput (HTS) or concentration-response (CoRe) format. […]

[6] = system: normotensive dogs; experiment: Intraocular pressure and ocular surface hyperemia in normotensive dogs; format: in vivo, dog; design: scale not given here; conditions: once daily for 5 days
Description: U.S. Pat. No. 7,091,231 describes the methods used for these in vivo tests.

[7] = target: T5, hEP4/Gqs5 (Homo sapiens, UniProt P35408); experiment: FLIPR calcium signal, EP4; format: cell-based; conditions: HEK-293(EBNA) cells
T5 construct: expressed in transfected cells; host or cells: HEK-293(EBNA)
Procedure: as §1, §2, §3, §4

[8] = target: T6, hDP/Gqs5 (Homo sapiens, UniProt Q13258); experiment: FLIPR calcium signal, hDP; format: cell-based; conditions: read-out: Other Receptors (EC50 in nM) hDP
T6 construct: expressed in transfected cells; host or cells: HEK-293(EBNA)
T6 sequence (Q13258 1-359): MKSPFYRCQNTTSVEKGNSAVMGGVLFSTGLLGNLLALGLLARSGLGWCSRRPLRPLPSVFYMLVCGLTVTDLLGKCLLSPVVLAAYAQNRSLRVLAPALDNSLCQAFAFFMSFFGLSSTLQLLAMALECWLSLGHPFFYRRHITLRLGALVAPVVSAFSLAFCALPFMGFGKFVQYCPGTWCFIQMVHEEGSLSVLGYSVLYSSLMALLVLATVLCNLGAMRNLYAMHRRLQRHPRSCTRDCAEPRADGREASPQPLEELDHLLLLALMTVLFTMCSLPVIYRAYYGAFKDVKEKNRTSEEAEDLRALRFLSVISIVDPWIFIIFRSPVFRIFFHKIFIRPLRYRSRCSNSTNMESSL
Procedure: as §1, §2, §3, §4

T1 sequence (P43116 whole entry): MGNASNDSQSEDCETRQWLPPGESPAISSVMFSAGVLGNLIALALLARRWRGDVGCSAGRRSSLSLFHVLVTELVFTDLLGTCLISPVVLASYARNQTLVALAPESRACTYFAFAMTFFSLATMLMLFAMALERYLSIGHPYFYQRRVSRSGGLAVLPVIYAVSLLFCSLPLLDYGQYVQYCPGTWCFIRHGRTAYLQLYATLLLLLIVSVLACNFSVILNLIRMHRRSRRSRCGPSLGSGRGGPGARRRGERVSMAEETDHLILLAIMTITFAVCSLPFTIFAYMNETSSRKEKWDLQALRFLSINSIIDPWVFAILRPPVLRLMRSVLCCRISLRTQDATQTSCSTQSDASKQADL
T3 sequence (P43116 whole entry): as above
T2 sequence (P35408 whole entry): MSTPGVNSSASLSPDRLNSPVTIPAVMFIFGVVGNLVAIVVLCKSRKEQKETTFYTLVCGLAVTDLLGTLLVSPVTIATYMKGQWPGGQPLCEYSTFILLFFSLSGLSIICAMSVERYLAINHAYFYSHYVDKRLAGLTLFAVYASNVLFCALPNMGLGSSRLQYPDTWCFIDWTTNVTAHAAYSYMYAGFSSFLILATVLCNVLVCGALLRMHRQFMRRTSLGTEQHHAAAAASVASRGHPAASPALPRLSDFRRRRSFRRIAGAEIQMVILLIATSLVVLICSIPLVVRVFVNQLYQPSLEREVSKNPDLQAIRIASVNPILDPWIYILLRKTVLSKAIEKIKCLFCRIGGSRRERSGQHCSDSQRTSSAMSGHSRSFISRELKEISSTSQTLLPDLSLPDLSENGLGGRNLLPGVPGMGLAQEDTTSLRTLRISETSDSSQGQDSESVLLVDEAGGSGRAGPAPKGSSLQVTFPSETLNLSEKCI
T5 sequence (P35408 whole entry): as above

EC50 [1] [nM] | Ki [2] [nM] | EC50 [3] [nM] | Ki [4] [nM] | EC50 [5] [nM] | maximum ocular surface hyperemia (OSH) score ([6]; 0.01%, at 74 h) | EC50 [7] [nM] | maximum ocular surface hyperemia (OSH) score ([6]; 0.001%, at 50 h) | EC50 [8] [nM] | SMILES
10200 | > 10000 | 284 | 502 |  |  |  |  |  | OCc1ccc(CCC[C@@H]2[C@@H](CCc3cc(Cl)cc(Cl)c3)[C@H](O)C[C@H]2Cl)s1 [compound 13, (1R,2R,3R,4R)-4-chloro-2-(3,5-dichlorophenethyl)-3-(3-(5-(hydroxymethyl)thiophen-2-yl)propyl)cyclopentanol]
3270 | 394 | 0.8 | 22 | 4620 | 0.8 | 10200 |  |  | O=C(O)CCCCCC[C@@H]1[C@@H](CCc2cc(Cl)cc(Cl)c2)[C@H](O)C[C@H]1Cl [compound 6, 7-{(1R,2R,3R,5R)-5-Chloro-2-[2-(3,5-dichloro-phenyl)-ethyl]-3-hydroxy-cyclopentyl}-heptanoic acid]
86 | 437 | 0.08 | 1 |  |  | > 10000 | 0.8 | 2940 | O=C(O)c1ccc(CCC[C@@H]2[C@@H](CCc3cc(Cl)cc(CO)c3)[C@H](O)C[C@H]2Cl)s1 [11c, 5-(3-((1R,2R,3R,5R)-5-chloro-2-(3-chloro-5-(hydroxymethyl)phenethyl)-3-hydroxycyclopentyl)propyl)thiophene-2-carboxylic acid]
